Measured values taken from article PMC4741889, “Ligand-based chemoinformatic discovery of a novel small molecule inhibitor targeting CDC25 dual specificity phosphatases and displaying in vitro efficacy against melanoma cells” (Oncotarget, 2015).

Experiments:
SAN cells = assay: Cell cycle analysis by PI flow cytometry, SAN cells; type: cell-based, human; settings: 100 μM, 16 and 24 h
Experimental: As CDC25 phosphatases are key cell cycle regulators, the effect of 7 on cell cycle progression was investigated in detail. To this aim, asynchronously growing A2058 and SAN cells were treated at different times with 100 μM compound 7, and then cell cycle analysis was cytofluorimetrically monitored after propidium iodide (PI) incorporation. […] After 16-h incubation with […], cells were mainly and almost equally distributed in G0/G1 and G2/M phases (the ratio between them being 0.96), whereas the cellular population in the S phase was essentially undetectable. […] A similar general picture emerged from the effect of compound 7 on cell cycle progression of SAN cells (Supplementary Figure S3).
Cells were seeded into 6-well plates at 3 × 10^5 cells/well for 24 h at 37°C; after the addition of 100 μM 7 or 0.5% DMSO as a vehicle control, the incubation of treated cells continued for 16 or 24 h. After each treatment, cells were harvested with trypsin, centrifuged and the pellet was resuspended in phosphate-buffered saline (PBS). For cell cycle analysis, cells were fixed with 70% (v/v) cold ethanol and stored at −20°C for 1 h. […] After incubation at 4°C for 30 min, cells were analyzed with a FACScan flow cytometer (Becton Dickinson) for evaluating the distribution in cell cycle phases or the presence of nuclei with a DNA content lower than the diploid.

caspase-9 activity = assay: Caspase-9 enzymatic activity in A2058 cells; type: cell-based, human; settings: A2058, 100 μM, 24 h
Experimental: Mitochondria represent the primary source of ROS, as well the target of ROS action, and therefore, compound 7 could affect their functionality in melanoma cells. […] Proteins belonging to the B-cell lymphoma-2 (Bcl-2) family are involved in the modulation of the mitochondrial functionality. Therefore, we have evaluated the levels of the anti-apoptotic protein Bcl-2, as well as that of the pro-apoptotic Bcl-2-associated X protein (Bax), after incubation with 7 (Figure 10B). […] To further investigate the occurrence of a mitochondrial-mediated apoptosis induced by 7, the caspase-9 activity was assayed. […] The effect of compound 7 was investigated also in SAN cells and the overall results were similar to those observed in A2058 (Supplementary Figure S6).
To estimate caspase-3 and caspase-9 activity during the treatment with compound 7, the respective enzymatic activities were measured by using caspase-3 and -9 fluorimetric assay kits, according to the manufacturer's protocol, essentially as previously described. Briefly, cells were seeded into 75 cm^2 plates (2 × 10^6 cells/plate) for 24 h at 37°C and then treated with 100 μM 7 or 0.5% DMSO. […] Cell lysates were incubated with 50 μM DEVD-AFC or LEHD-AFC substrates at 37°C for 2 h, to detect caspase-3 or caspase-9 activity, respectively, using a Cary Eclipse fluorescence spectrophotometer (Varian). […]

CDC25B = biological target: T1, CDC25B (Homo sapiens, UniProt P30305); assay: Residual phosphatase activity of recombinant CDC25B, fluorimetric OMFP assay; type: biochemical; settings: 10 nM CDC25B, 25 μM OMFP, read-out: CDC25B residual activity (%) in the presence of [inhibitor]
T1 construct: Recombinant forms of the catalytic domains of CDC25A, -B and -C were obtained through the vectors pET28a-CDC25A-cd, pET28a-CDC25B-cd and pET28a-CDC25C-cd; made in house
T1 sequence (P30305 431-538 limits assumed): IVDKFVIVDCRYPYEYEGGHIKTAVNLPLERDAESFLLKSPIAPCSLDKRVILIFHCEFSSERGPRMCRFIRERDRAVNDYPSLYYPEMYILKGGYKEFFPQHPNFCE
Experimental: Among the twenty-five structures identified from the multiple ligand-based chemoinformatic approach, eight compounds (2, 10, 12–14, and 16–18) were excluded from the analysis, because endowed with a strong fluorescent signal, which interfered with the emission wavelength of the synthetic substrate 3-O-methylfluorescein phosphate (OMFP) used in the fluorimetric assay. The inhibition of the phosphatase activity of CDC25B by the remaining seventeen analogs was evaluated in the presence of two different concentrations of these compounds (Table 2). […] For this reason, only one of these latter compounds, i.e. 3, was included in the following analysis.
The enzymatic activity of the catalytic domains of CDC25A, -B and -C were determined through a fluorimetric method, which monitored the dephosphorylation of the synthetic substrate OMFP, essentially as previously described. In steady-state enzyme kinetic studies, the residual phosphatase activity of purified recombinant CDC25B was measured at 30°C in the presence of different concentrations of the various inhibitors, using a computer-assisted Cary Eclipse spectrofluorimeter (Varian) equipped with an electronic temperature controller. Excitation and emission wavelengths were set at 485 and 530 nm, respectively; both excitation and emission slits were set at 10 nm. The reaction mixture contained 10 nM CDC25B and different concentrations of the various inhibitors in 500 μL final volume of 20 mM Tris-HCl, pH 7.8, 1 mM DTT. DMSO was used as vehicle control. The reaction started by the addition of 25 μM OMFP, and the formation of the fluorescent product o-methylfluorescein was monitored continuously. The rate of OMFP hydrolysis was expressed as arbitrary units per min (a.u./min). The comparison of the rates determined in the absence and in the presence of the various inhibitors allowed the calculation of the residual phosphatase activity, expressed as a percentage.

O=C(O)C1CCCCC1c1c2ccc(=O)cc-2oc2cc(O)ccc12 (stereo not shown) [Compound 7, 2-(6-hydroxy-3-oxo-3H-xanthen-9-yl)cyclohexanecarboxylic acid]
cell distribution in the G2/M phase (SAN cells): increase of cell distribution in the G2/M phase
caspase-9 activity (caspase-9 activity): clear increase of caspase-9 activity
remaining activity at 0.2 µM (CDC25B; 0.2 μM inhibitor): 44%
remaining activity at 1 µM (CDC25B; 1 μM inhibitor): 1%
